Data published in patent US8067042B1 (Mutual Pharmaceutical Company, Inc., priority 2007, dated 2011).

Experiments:
[1] = tested on: CYP2C8; assay type: in vitro ADME; conditions: 50 μM megestrol acetate, microsomes, quercetin
[2] = biological target: T1, CYP2C19 (Homo sapiens, UniProt P33261); assay type: in vitro ADME; conditions: 50 μM megestrol acetate, microsomes
[3] = biological target: T2, CYP2D6 (Homo sapiens, UniProt P10635); assay type: in vitro ADME; conditions: 50 μM megestrol acetate, microsomes
T2 sequence (P10635 whole entry): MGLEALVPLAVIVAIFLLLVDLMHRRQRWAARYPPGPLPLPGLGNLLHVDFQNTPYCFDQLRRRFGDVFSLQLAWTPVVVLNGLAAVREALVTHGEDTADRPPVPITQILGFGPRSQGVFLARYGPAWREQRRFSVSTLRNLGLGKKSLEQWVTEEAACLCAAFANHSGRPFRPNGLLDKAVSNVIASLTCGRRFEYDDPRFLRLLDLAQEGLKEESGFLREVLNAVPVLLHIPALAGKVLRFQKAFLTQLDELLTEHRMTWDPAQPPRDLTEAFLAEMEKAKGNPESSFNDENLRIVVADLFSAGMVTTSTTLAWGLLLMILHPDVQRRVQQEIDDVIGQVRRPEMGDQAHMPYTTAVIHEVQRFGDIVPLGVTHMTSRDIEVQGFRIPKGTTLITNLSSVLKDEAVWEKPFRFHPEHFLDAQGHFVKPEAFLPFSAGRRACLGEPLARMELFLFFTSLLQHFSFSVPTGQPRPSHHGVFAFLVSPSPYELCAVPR

[4] = biological target: T3, CYP3A4 (Homo sapiens, UniProt P08684); assay type: in vitro ADME; conditions: 50 μM megestrol acetate, microsomes, ketoconazole
Target sequence in this assay (P08684 whole entry): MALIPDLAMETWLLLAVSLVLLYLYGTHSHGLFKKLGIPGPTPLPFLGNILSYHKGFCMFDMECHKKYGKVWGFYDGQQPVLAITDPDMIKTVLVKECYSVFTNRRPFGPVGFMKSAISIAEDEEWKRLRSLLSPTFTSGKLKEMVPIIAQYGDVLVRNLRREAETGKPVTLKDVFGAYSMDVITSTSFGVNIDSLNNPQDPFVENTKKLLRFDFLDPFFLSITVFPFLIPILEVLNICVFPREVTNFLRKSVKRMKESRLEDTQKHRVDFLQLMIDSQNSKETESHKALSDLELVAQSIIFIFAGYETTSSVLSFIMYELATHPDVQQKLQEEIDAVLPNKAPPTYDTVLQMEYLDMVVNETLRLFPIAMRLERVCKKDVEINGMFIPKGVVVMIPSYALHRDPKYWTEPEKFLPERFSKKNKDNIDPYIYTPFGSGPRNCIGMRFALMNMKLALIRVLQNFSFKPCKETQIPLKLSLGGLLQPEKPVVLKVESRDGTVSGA

[5] = tested on: CYP2A6
[6] = tested on: CYP2E1
Method: (§1) The stock solutions were added to incubation mixtures to obtain the final concentrations of 5 and 50 μM, each containing 1% acetonitrile.
(§2) After a 5 minute preincubation, nicotinamide adenine dinucleotide phosphate (NADPH) regenerating system (NRS; 1.7 mg/mL β-NADP, 7.8 mg/mL glucose-6-phosphate, and 6 units/mL glucose-6-phosphate dehydrogenase in 2% sodium bicarbonate solution) was added to initiate the reaction. The final incubation volume was 0.5 mL. Incubations were continued for 60 minutes.
(§3) All incubations were conducted at 37±1° C. in a shaking water bath. All incubations were carried out in triplicates.
(§4) After a 5-minute preincubation, 2% sodium bicarbonate solution was added to the incubation mixtures. The final incubation volume was 0.5 mL. Incubations were continued for 60 minutes.
(§5) Incubation reactions, including the matrix controls and metabolic negative controls, were terminated by adding 0.5 mL methanol.
(§6) The samples were analyzed on a Supelcosil LC-18 column (3μ, 120 Å, 3.0×100 mm).

[7] = biological target: T3, CYP3A4
Target sequence in this assay (P08684 whole entry): as above
Method: as §1, §2, §3, §4, §5, §6

[8] = biological target: T4, CYP2B6 (Homo sapiens, UniProt P20813); conditions: 50 μM megestrol acetate, microsomes, CYP2B6 inhibitor
T4 sequence (P20813 1-491): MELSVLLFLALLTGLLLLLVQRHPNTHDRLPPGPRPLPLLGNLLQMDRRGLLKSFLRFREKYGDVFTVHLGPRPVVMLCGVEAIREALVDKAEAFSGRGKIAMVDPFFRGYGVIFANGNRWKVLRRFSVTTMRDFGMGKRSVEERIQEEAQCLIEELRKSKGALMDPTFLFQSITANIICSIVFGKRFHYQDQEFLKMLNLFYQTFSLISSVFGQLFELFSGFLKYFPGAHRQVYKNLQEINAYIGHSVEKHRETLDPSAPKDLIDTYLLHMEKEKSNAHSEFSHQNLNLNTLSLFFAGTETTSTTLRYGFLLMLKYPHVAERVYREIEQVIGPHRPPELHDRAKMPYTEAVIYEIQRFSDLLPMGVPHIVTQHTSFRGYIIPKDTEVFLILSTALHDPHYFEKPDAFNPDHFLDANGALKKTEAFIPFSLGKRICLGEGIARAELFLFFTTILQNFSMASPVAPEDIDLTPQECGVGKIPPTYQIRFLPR

[9] = biological target: T5, CYP2A6 (Homo sapiens, UniProt P11509); assay type: in vitro ADME; set-up: purchased BD Biosciences Discovery Labware, Woburn, Mass; host or cells: baculovirus-infected insect cells; conditions: 50 μM megestrol acetate, 20 pmol CYP2A6
T5 sequence (P11509 1-494): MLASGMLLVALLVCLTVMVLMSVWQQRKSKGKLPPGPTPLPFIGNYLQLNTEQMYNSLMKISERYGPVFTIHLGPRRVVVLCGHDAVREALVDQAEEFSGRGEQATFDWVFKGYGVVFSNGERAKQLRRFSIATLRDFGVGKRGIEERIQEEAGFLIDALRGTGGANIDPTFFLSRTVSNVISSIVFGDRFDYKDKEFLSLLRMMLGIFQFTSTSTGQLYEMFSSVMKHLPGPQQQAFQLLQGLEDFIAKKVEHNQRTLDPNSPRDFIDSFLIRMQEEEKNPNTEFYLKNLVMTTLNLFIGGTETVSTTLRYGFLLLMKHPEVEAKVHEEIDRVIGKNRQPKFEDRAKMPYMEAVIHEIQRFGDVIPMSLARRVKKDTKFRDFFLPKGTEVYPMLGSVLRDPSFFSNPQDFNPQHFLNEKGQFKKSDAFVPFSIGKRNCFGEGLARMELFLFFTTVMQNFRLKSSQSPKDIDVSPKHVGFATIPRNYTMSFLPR

[10] = biological target: T4, CYP2B6; assay type: in vitro ADME; set-up: purchased BD Biosciences Discovery Labware, Woburn, Mass; host or cells: baculovirus-infected insect cells; conditions: 50 μM megestrol acetate, 20 pmol CYP2B6
[11] = biological target: CYP2C9 (Homo sapiens, UniProt P11712); assay type: in vitro ADME; set-up: purchased BD Biosciences Discovery Labware, Woburn, Mass; host or cells: baculovirus-infected insect cells; conditions: 50 μM megestrol acetate, 20 pmol CYP2C9
CYP2C9, sequence (P11712 whole entry): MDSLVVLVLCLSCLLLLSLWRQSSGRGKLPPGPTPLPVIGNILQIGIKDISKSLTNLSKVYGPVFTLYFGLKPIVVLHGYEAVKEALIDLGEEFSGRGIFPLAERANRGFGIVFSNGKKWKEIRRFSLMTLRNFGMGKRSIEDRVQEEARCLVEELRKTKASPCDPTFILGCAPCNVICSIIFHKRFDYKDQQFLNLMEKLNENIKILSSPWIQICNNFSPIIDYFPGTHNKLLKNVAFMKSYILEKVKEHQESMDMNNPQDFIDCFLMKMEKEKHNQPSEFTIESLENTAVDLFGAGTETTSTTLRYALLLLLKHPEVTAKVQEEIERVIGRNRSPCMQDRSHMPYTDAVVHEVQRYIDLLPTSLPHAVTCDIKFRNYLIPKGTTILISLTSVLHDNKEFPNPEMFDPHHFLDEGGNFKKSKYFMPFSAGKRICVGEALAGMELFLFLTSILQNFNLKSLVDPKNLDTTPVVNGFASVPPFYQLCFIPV

[12] = biological target: T1, CYP2C19; assay type: in vitro ADME; set-up: purchased BD Biosciences Discovery Labware, Woburn, Mass; host or cells: baculovirus-infected insect cells; conditions: 50 μM megestrol acetate, 20 pmol CYP2C19
[13] = biological target: T2, CYP2D6; assay type: in vitro ADME; set-up: purchased BD Biosciences Discovery Labware, Woburn, Mass; host or cells: baculovirus-infected insect cells; conditions: 50 μM megestrol acetate, 20 pmol CYP2D6
[14] = biological target: CYP2E1 (Homo sapiens, UniProt P05181); assay type: in vitro ADME; set-up: purchased BD Biosciences Discovery Labware, Woburn, Mass; host or cells: baculovirus-infected insect cells; conditions: 50 μM megestrol acetate, 20 pmol CYP2E1
CYP2E1 (Homo sapiens, UniProt P05181), sequence (P05181 whole entry): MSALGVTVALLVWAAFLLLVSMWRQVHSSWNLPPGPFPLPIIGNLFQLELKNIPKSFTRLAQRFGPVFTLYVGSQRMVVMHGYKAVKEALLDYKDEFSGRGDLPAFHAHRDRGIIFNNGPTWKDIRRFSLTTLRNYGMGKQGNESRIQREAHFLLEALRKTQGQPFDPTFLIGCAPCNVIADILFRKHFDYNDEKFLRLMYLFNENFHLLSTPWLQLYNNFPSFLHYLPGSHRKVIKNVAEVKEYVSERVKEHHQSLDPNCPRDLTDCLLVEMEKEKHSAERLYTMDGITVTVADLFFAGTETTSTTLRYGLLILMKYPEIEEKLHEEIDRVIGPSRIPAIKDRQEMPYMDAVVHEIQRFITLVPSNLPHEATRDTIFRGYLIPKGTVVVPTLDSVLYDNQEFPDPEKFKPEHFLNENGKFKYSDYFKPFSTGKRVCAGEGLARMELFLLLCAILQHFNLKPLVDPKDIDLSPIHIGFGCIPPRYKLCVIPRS

[15] = biological target: T3, CYP3A4; assay type: in vitro ADME; set-up: purchased BD Biosciences Discovery Labware, Woburn, Mass; host or cells: baculovirus-infected insect cells; conditions: 50 μM megestrol acetate, 20 pmol CYP3A4
Target sequence in this assay (P08684 2-503 limits assumed): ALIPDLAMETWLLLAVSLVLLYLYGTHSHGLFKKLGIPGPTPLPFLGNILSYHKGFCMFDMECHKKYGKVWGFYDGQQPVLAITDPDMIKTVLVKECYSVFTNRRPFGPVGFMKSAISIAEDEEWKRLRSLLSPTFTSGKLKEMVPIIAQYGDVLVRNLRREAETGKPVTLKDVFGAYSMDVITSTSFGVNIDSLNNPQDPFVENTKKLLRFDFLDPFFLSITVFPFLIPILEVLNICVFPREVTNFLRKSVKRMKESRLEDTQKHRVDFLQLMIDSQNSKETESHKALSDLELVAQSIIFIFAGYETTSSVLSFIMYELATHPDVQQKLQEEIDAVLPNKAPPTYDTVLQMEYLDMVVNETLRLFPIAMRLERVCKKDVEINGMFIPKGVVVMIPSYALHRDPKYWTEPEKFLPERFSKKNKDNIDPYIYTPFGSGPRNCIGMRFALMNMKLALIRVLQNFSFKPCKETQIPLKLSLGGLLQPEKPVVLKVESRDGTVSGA

[16] = human, microsomes, 60 min, pH 7.4

T1 sequence (P33261 whole entry): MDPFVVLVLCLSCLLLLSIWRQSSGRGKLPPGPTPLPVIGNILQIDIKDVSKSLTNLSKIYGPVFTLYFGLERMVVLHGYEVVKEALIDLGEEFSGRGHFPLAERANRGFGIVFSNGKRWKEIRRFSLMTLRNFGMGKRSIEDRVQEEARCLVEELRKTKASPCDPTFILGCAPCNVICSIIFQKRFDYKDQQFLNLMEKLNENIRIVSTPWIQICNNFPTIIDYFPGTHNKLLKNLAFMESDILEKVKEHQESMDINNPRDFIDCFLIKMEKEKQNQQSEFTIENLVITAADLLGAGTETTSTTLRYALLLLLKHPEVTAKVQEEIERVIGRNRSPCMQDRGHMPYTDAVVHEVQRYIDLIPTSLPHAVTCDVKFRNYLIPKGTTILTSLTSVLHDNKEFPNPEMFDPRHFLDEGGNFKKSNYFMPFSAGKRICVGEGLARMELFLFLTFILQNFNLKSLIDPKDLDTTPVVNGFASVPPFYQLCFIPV

CC(=O)O[C@]1(C(C)=O)CC[C@H]2[C@@H]3C=C(C)C4=CC(=O)CC[C@]4(C)[C@H]3CC[C@@]21C [Megestrol Acetate, 17 α-acetyloxy-6-methylpregna-4,6-diene-3,20-dione]
difference in metabolism in the presence or absence of the inhibitor (LC/MS) [1]: a significant difference in metabolism | difference in metabolism in the presence or absence of the inhibitor (LC/MS) [2]: no significant difference in metabolism | difference in metabolism in the presence or absence of the inhibitor (LC/MS) [3]: no significant difference in metabolism | difference in metabolism in the presence or absence of the inhibitor (LC/MS) [4]: a significant difference in metabolism | percent metabolized in presence vs absence of inhibitor (unpaired two-tailed t-test) [5]: less than that of the percentage of megestrol acetate metabolized in the absence of the inhibitor | metabolized in pooled human liver microsomes [5, 16]: > 20% | percent metabolized in presence vs absence of inhibitor (unpaired two-tailed t-test) [6]: less than that of the percentage of megestrol acetate metabolized in the absence of the inhibitor | metabolized in pooled human liver microsomes [6, 16]: > 20% | percent metabolized in presence vs absence of inhibitor (unpaired two-tailed t-test) [7]: less than that of the percentage of megestrol acetate metabolized in the absence of the inhibitor | metabolized in pooled human liver microsomes [7, 16]: > 20% | difference in metabolism in the presence or absence of the inhibitor (LC/MS) [8]: no significant difference in metabolism | metabolites formed [9]: no metabolites were formed | metabolites observed [10]: 1.23% | metabolites formed [11]: no metabolites observed | metabolites detected [12]: 1.14% | metabolites formed [13]: no metabolites were detected | metabolites formed [14]: no metabolites were detected | metabolism of megestrol acetate by mass spectrometric methods [15]: More than 50%
